ChEMBL document CHEMBL1201862, “PubChem BioAssay data set” (2004)
Several values for one entry are separate records, joined by “and”; a condition that tells them apart may be missing. Identical values can stand only once.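 Where inhibition never reached the appropriate level, the endpoint shown equals the highest concentration tested. Otherwise, values were interpolated linearly from a five-concentration, 48-hour dose response in 96-well plates. Abbreviation: GI50, concentration required for 50% inhibition of growth.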 Activity calls are given as the source filed them. No stated cut-off is given here; in the data, active = GI50 up to about 1.1 µM and inactive = higher.

Key:
Test in all cases: NCI tumour cell line growth inhibition, 48 h
COLO 205 = test system: COLO 205
OVCAR-5 = test system: OVCAR-5
MDA-MB-231 = test system: MDA-MB-231
SK-MEL-28 = test system: SK-MEL-28
SF-539 = test system: SF-539
786-0 = test system: 786-0
SF-295 = test system: SF-295
OVCAR-4 = test system: OVCAR-4
UACC-257 = test system: UACC-257
HCT-15 = test system: HCT-15
HL-60 = test system: HL-60
NCI/ADR-RES = test system: NCI/ADR-RES
OVCAR-8 = test system: OVCAR-8
MOLT-4 = test system: MOLT-4
HCC 2998 = test system: HCC 2998
Hs-578T = test system: Hs-578T
CAKI-1 = test system: CAKI-1
K562 = test system: K562
SK-OV-3 = test system: SK-OV-3
A549 = test system: A549
NCI-H226 = test system: NCI-H226
OVCAR-3 = test system: OVCAR-3
U-251 = test system: U-251
SW-620 = test system: SW-620
SK-MEL-2 = test system: SK-MEL-2
KM12 = test system: KM12
PC-3 = test system: PC-3
EKVX = test system: EKVX
M14 = test system: M14
MCF7 = test system: MCF7
SNB-19 = test system: SNB-19
RPMI-8226 = test system: RPMI-8226
SN12C = test system: SN12C
TK-10 = test system: TK-10
UO-31 = test system: UO-31
HCT-116 = test system: HCT-116
IGROV-1 = test system: IGROV-1
HOP-92 = test system: HOP-92
T47D = test system: T47D
NCI-H522 = test system: NCI-H522
HOP-62 = test system: HOP-62
LOX IMVI = test system: LOX IMVI
DU-145 = test system: DU-145
A498 = test system: A498
RXF 393 = test system: RXF 393
CCRF-CEM = test system: CCRF-CEM
SNB-75 = test system: SNB-75
MDA-MB-435 = test system: MDA-MB-435
NCI-H23 = test system: NCI-H23
ACHN = test system: ACHN
HT-29 = test system: HT-29
UACC-62 = test system: UACC-62
SF-268 = test system: SF-268
SR = test system: SR
Malme-3M = test system: Malme-3M
SK-MEL-5 = test system: SK-MEL-5
MDA-N = test system: MDA-N
NCI-H460 = test system: NCI-H460

SMILES: CCCCCCCCCCCCCCCCCCNc1ccn(C2OC(COP(=O)(O)OCCCCCCCCCCCCCCCC)C(O)C2O)c(=O)n1 (stereo not given)
- GI50 (COLO 205): > 100 µM (inactive)
- GI50 (OVCAR-5): > 100 µM (inactive)
- GI50 (MDA-MB-231): > 100 µM (inactive)
- GI50 (SK-MEL-28): > 100 µM (inactive)
- GI50 (SF-539): > 100 µM (inactive)
- GI50 (786-0): > 100 µM (inactive)
- GI50 (SF-295): > 100 µM (inactive)
- GI50 (OVCAR-4): > 100 µM (inactive)
- GI50 (UACC-257): > 100 µM (inactive)
- GI50 (HCT-15): > 100 µM
- GI50 (HL-60): 58.3 µM (inactive)
- GI50 (NCI/ADR-RES): > 100 µM (inactive)
- GI50 (OVCAR-8): > 100 µM (inactive)
- GI50 (MOLT-4): > 100 µM (inactive)
- GI50 (HCC 2998): > 100 µM (inactive)
- GI50 (Hs-578T): 83.8 µM (inactive)
- GI50 (CAKI-1): > 100 µM (inactive)
- GI50 (K562): > 100 µM (inactive)
- GI50 (SK-OV-3): > 100 µM (inactive)
- GI50 (A549): > 100 µM (inactive)
- GI50 (NCI-H226): > 100 µM (inactive)
- GI50 (OVCAR-3): > 100 µM (inactive)
- GI50 (U-251): > 100 µM (inactive)
- GI50 (SW-620): > 100 µM (inactive)
- GI50 (SK-MEL-2): > 100 µM (inactive)
- GI50 (KM12): > 100 µM (inactive)
- GI50 (PC-3): > 100 µM (inactive)
- GI50 (EKVX): > 100 µM (inactive)
- GI50 (M14): > 100 µM (inactive)
- GI50 (MCF7): > 100 µM (inactive)
- GI50 (SNB-19): > 100 µM (inactive)
- GI50 (RPMI-8226): > 100 µM (inactive)
- GI50 (SN12C): > 100 µM (inactive)
- GI50 (TK-10): > 100 µM (inactive)
- GI50 (UO-31): > 100 µM (inactive)
- GI50 (HCT-116): > 100 µM (inactive)
- GI50 (IGROV-1): > 100 µM (inactive)
- GI50 (HOP-92): > 100 µM (inactive)
- GI50 (T47D): > 100 µM (inactive)
- GI50 (NCI-H522): 51.3 µM (inactive)
- GI50 (HOP-62): > 100 µM (inactive)
- GI50 (LOX IMVI): 82 µM (inactive)
- GI50 (DU-145): > 100 µM (inactive)
- GI50 (A498): > 100 µM (inactive)
- GI50 (RXF 393): > 100 µM (inactive)
- GI50 (CCRF-CEM): 77.8 µM (inactive)
- GI50 (SNB-75): 74.1 µM (inactive)
- GI50 (MDA-MB-435): > 100 µM (inactive)
- GI50 (NCI-H23): > 100 µM (inactive)
- GI50 (ACHN): > 100 µM (inactive)
- GI50 (HT-29): > 100 µM (inactive)
- GI50 (UACC-62): > 100 µM (inactive)
- GI50 (SF-268): > 100 µM (inactive)
- GI50 (SR): > 100 µM (inactive)

SMILES: COc1ccc2c(c1)[n+]([O-])c1ccccc1[n+]2[O-]
- GI50 (COLO 205): 33.2 µM (inactive) and 19.1 µM (inactive)
- GI50 (OVCAR-5): 38.7 µM (inactive) and 65.9 µM (inactive)
- GI50 (MDA-MB-231): 29.7 µM (inactive) and 37.7 µM (inactive)
- GI50 (SK-MEL-28): 78.7 µM (inactive)
- GI50 (SF-295): 21.6 µM (inactive) and 39.8 µM (inactive)
- GI50 (OVCAR-4): 25 µM (inactive)
- GI50 (HCT-15): 15.1 µM and 28.2 µM
- GI50 (NCI/ADR-RES): 29.9 µM (inactive) and 53.3 µM (inactive)
- GI50 (OVCAR-8): 18.5 µM (inactive) and 17.2 µM (inactive)
- GI50 (HCC 2998): 29.1 µM (inactive)
- GI50 (Malme-3M): 38.7 µM (inactive) and 37.7 µM (inactive)
- GI50 (SK-OV-3): 24.7 µM (inactive)
- GI50 (A549): 11 µM (inactive) and 21.7 µM (inactive)
- GI50 (NCI-H226): 26.4 µM (inactive) and 27.2 µM (inactive)
- GI50 (OVCAR-3): 36.1 µM (inactive) and 44.8 µM (inactive)
- GI50 (U-251): 22.6 µM (inactive) and 37.4 µM (inactive)
- GI50 (SW-620): 24.7 µM (inactive) and 29.9 µM (inactive)
- GI50 (SK-MEL-2): 26.9 µM (inactive) and 21.8 µM (inactive)
- GI50 (KM12): 40.5 µM (inactive) and 22.4 µM (inactive)
- GI50 (EKVX): 34 µM (inactive) and 17.5 µM (inactive)
- GI50 (RPMI-8226): 20.3 µM (inactive) and 19.5 µM (inactive)
- GI50 (SK-MEL-5): 18.4 µM (inactive) and 24.1 µM (inactive)
- GI50 (SN12C): 28.6 µM (inactive) and 21 µM (inactive)
- GI50 (TK-10): 34.1 µM (inactive) and 31.5 µM (inactive)
- GI50 (UO-31): 10.3 µM (inactive) and 10.2 µM (inactive)
- GI50 (HCT-116): 31.5 µM (inactive) and 47.2 µM (inactive)
- GI50 (IGROV-1): 5.9 µM (inactive)
- GI50 (HOP-92): 47.1 µM (inactive)
- GI50 (NCI-H522): 12.6 µM (inactive) and 14.6 µM (inactive)
- GI50 (HOP-62): 29.1 µM (inactive) and 36.8 µM (inactive)
- GI50 (CCRF-CEM): 22.8 µM (inactive) and 17.9 µM (inactive)
- GI50 (SNB-75): 70.1 µM (inactive) and 35.2 µM (inactive)
- GI50 (NCI-H23): 24.7 µM (inactive) and 37.5 µM (inactive)
- GI50 (HT-29): 29.9 µM (inactive) and 51.5 µM (inactive)
- GI50 (MDA-N): 73.8 µM (inactive)
- GI50 (UACC-62): 23.7 µM (inactive) and 18.5 µM (inactive)

SMILES: CS(=O)(=O)N1CC(CCl)c2ccc(NCCN)cc21 (stereo not given)
- GI50 (COLO 205): > 100 µM (inactive)
- GI50 (OVCAR-5): > 100 µM (inactive)
- GI50 (MDA-MB-231): 33.3 µM (inactive)
- GI50 (SK-MEL-28): > 100 µM (inactive)
- GI50 (SF-539): 72.6 µM (inactive)
- GI50 (786-0): 18.7 µM (inactive)
- GI50 (OVCAR-4): 58.9 µM (inactive)
- GI50 (UACC-257): > 100 µM (inactive)
- GI50 (HCT-15): > 100 µM
- GI50 (HL-60): > 100 µM (inactive)
- GI50 (NCI-H460): > 100 µM (inactive)
- GI50 (NCI/ADR-RES): > 100 µM (inactive)
- GI50 (OVCAR-8): 57.5 µM (inactive)
- GI50 (MOLT-4): > 100 µM (inactive)
- GI50 (HCC 2998): > 100 µM (inactive)
- GI50 (Hs-578T): 27.2 µM (inactive)
- GI50 (Malme-3M): > 100 µM (inactive)
- GI50 (CAKI-1): 96.2 µM (inactive)
- GI50 (K562): > 100 µM (inactive)
- GI50 (SK-OV-3): 22.1 µM (inactive)
- GI50 (A549): > 100 µM (inactive)
- GI50 (NCI-H226): > 100 µM (inactive)
- GI50 (OVCAR-3): > 100 µM (inactive)
- GI50 (U-251): 27.7 µM (inactive)
- GI50 (SW-620): > 100 µM (inactive)
- GI50 (SK-MEL-2): > 100 µM (inactive)
- GI50 (KM12): > 100 µM (inactive)
- GI50 (PC-3): > 100 µM (inactive)
- GI50 (EKVX): 47.9 µM (inactive)
- GI50 (M14): > 100 µM (inactive)
- GI50 (MCF7): > 100 µM (inactive)
- GI50 (SNB-19): 39 µM (inactive)
- GI50 (RPMI-8226): > 100 µM (inactive)
- GI50 (SK-MEL-5): > 100 µM (inactive)
- GI50 (SN12C): > 100 µM (inactive)
- GI50 (TK-10): > 100 µM (inactive)
- GI50 (UO-31): > 100 µM (inactive)
- GI50 (HCT-116): 83.2 µM (inactive)
- GI50 (IGROV-1): 12.5 µM (inactive)
- GI50 (HOP-92): 26.3 µM (inactive)
- GI50 (T47D): > 100 µM (inactive)
- GI50 (NCI-H522): 23.7 µM (inactive)
- GI50 (HOP-62): 14.8 µM (inactive)
- GI50 (LOX IMVI): > 100 µM (inactive)
- GI50 (DU-145): > 100 µM (inactive)
- GI50 (A498): 69 µM (inactive)
- GI50 (RXF 393): 35.4 µM (inactive)
- GI50 (CCRF-CEM): 79.8 µM (inactive)
- GI50 (SNB-75): 17.1 µM (inactive)
- GI50 (MDA-MB-435): > 100 µM (inactive)
- GI50 (NCI-H23): 53.7 µM (inactive)
- GI50 (ACHN): 29.9 µM (inactive)
- GI50 (HT-29): > 100 µM (inactive)
- GI50 (MDA-N): > 100 µM (inactive)
- GI50 (SF-268): 39.1 µM (inactive)
